Measurements as given in patent US7351729B2, “JNK inhibitors for use in combination therapy for treating or managing proliferative disorders and cancers” (Signal Pharmaceuticals, LLC, priority 2002, dated 2008).

Tests used:
[1] = system: Lewis Lung Carcinoma (LLC) tumors; assay: LLC tumor growth in mice, JNK inhibitor B with cyclophosphamide; format: in vivo, C57BL/6 mice; settings: CTX (50 mg/kg, ip, q3d) in combination with JNK inhibitor B; 17 days; 10/group
Description: This experiment was performed to determine if JNK inhibitors will enhance the antitumor effects of cyclophosphamide (CTX) in combination treatment. Results are illustrated in FIG. 2.
Lewis Lung Carcinoma (LLC) tumors were injected into C57BL/6 mice (50 mice, 10/group), 1×10^6 cells in 0.1 ml Matrigel. Tumors were treated the day after inoculation by administration of vehicle alone (0.5% CMC/0.25% Tween 80), cyclophosphamide (CTX, 50 mg/kg, ip, q3d), SPC2 (75 mg/kg, ip, b.i.d.) or CTX in combination with JNK inhibitor B. Tumor volume was recorded over a period of 17 days. Tumor volume was calculated by the formula: mm^3=(L×W^2)/2. In the CTX/JNK inhibitor B combination group, 7/10 animals had no measurable tumors at the end of the study.

[2] = system: Lewis Lung Carcinoma (LLC) cells; assay: Lewis Lung Carcinoma (LLC) proliferation in vitro, Alamar Blue fluorescence; format: cell-based; settings: combination with a chemodrug (doxorubican, 5-FU, cisplatin or paclitaxel), 48 hours after treatment, relative to JNK inhibitor or chemodrug alone
Description: This experiment was performed in vitro to determine the effect on Lewis Lung Carcinoma (LLC) proliferation of combination treatment with JNK inhibitor A and JNK inhibitor B (JNK inhibitor A=((2H-Dibenzo(cd,g)indazol-6-one)); JNK inhibitor B=(3-(4-fluoro-phenyl)-5-(2H-(1,2,4-triazol-3-yl)-1H-indazole)) and anti-cancer agents. The results are illustrated in FIGS. 1A and 1B.
LLC cells were grown in DMEM with 10% FBS. Cells were subsequently treated on the second day with either DMSO,JNK inhibitor A (3 μM, 10 μM or 30 μM), JNK inhibitor B (1 μM, 3 μM, or 10 μM), or a chemodrug (i.e., doxorubican, […] (5-FU), cisplatin or paclitaxel) (concentrations ranging from 0.001 μM to 10 μM) or a combination of JNK inhibitor A or JNK inhibitor B with a chemodrug. Cell proliferation was measured at 48 hours after treatment by Alamar Blue fluorescence.

[3] = system: HCT-116 human colorectal cancer cells; assay: HCT-116 tumor growth in SCID mice, JNK inhibitor C with Camptosar; format: in vivo, CB17 SCID mice; settings: JNK inhibitor C (15 mg/kg, i.p., b.i.d) + Camptosar (1.5 mg/kg, q4d)
Description: The following experiment was performed to determine the effectiveness of combination treatment with JNK inhibitor C (JNK inhibitor C=(3-(4-(2-Piperidin-1-yl-ethoxy)-cyclohexa-1,5-dienyl)-5-(2H-(1,2,4)triazol-3-yl)-1H-indazole)) and Camptosar. The results are illustrated in FIG. 5.
CB17 SCID mice were inoculated subcutaneously with HCT-116 human colorectal cancer cells. On day 8, mice bearing tumors of 100 mm^3 were segregated into groups and administered i.p. with vehicle (citrate buffer), JNK inhibitor C (15 mg/kg), JNK inhibitor C (30 mg/kg), JNK inhibitor C (15 mg/kg)+Camptosar (1.5 mg/kg), Camptosar (1.5 mg/kg) or Camptosar (10 mg/kg). The tumors were measured twice a week and volumes calculated. The dosing regimen for the compound JNK inhibitor C was b.i.d and for Camptosar was q4d. The arrows indicate the dosing days of JNK inhibitor C and Camptosar.

Lewis lung carcinoma = assay: LLC tumor growth in mice, JNK inhibitor A with cyclophosphamide; format: in vivo, C57BL/6 mice; settings: JNK inhibitor A in combination with cyclophosphamide; p=0.05; N=10
Description: The following experiment was performed to determine the effectiveness of combination treatment with JNK inhibitor A and cyclophosphamide. The results are illustrated in FIG. 4.
Tumor cells were cultured under normal conditions, harvested with trypsin, washed with PBS then resuspended, 1×10^7 cells/ml in Matrigel (Collaborative). C57BL/6 mice (female, 18-20 g, Charles River) were lightly anesthetized using Isofluorane then inoculated, subcutaneously, under the right flank with 0.1 ml Matrigel containing 1×10^6 tumor cells. Mice were randomized into treatment groups immediately after cell inoculation. After 3 days tumor growth treatment began. Mice were administered vehicle alone (DMSO), cyclophosphamide (CTX), JNK inhibitor A or CTX in combination with JNK inhibitor A. Tumor volumes were determined by caliper measurement. Tumor volume was calculated by the formula: mm^3=(L×W2)/2. Values are mean±sem, N=10.

MiaPaCa cells = assay: MiaPaCa cell apoptosis, DiOC6 staining and flow cytometry; format: cell-based; settings: taxol for first 7 hours, washed out, then JNK inhibitor A; read at 48 hours; compared to taxol alone
Description: The following experiment was performed to determine the effectiveness of combination treatment with JNK inhibitor A and a chemodrug on apoptosis. The results are illustrated in FIG. 3.
MiaPaCa cells (100,000/well) were plated in 6 well plates. Following overnight incubation, vehicle or taxol was added alone for the first 7 hours, washed out, and then JNK inhibitor A or vehicle were added for the remainder of the experiment. After 48 hours, each sample was trypsinized, stained with DiOC6 and analyzed by flow cytometry on a Coulter Epics flow cytometer using FlowJo software.

## Fc1ccc(-c2n[nH]c3ccc(-c4ncn[nH]4)cc23)cc1 [JNK inhibitor B, 3-(4-fluoro-phenyl)-5-(2H-(1,2,4)triazol-3-yl)-1H-indazole]
[1]
  animals with no measurable tumors at the end of the study: 7/10
[2]
  killing of cells (cell proliferation): increased killing of cells

## C1=CC(OCCN2CCCCC2)CC=C1c1n[nH]c2ccc(-c3ncn[nH]3)cc12 (stereo not drawn) [JNK inhibitor C, 3-(4-(2-Piperidin-1-yl-ethoxy)-cyclohexa-1,5-dienyl)-5-(2H-(1,2,4)triazol-3-yl)-1H-indazole]
[3]
  tumor growth versus either treatment alone: significantly slower

## O=C1c2ccccc2-c2n[nH]c3cccc1c23 [JNK inhibitor A, 2H-Dibenzo(cd,g) indazol-6-one]
[2]
  killing of cells (cell proliferation): increased killing of cells
Lewis lung carcinoma
  tumor inhibition (tumor volume) versus cyclophosphamide alone: significantly less
MiaPaCa cells
  chemotherapeutic induction of apoptosis: Potentiates Chemotherapeutic Induction of Apoptosis
